Values after ≈ are worked out from the molar mass of the structure shown. Where two headings read alike, the source gives them in different places.
Experiments:
[1] = Oxidative Stability by Rotating Pressure Vessel (RBOT) of refined meadowfoam seed oil plus thiourea compounds
Excerpt: Another presently preferred method of determining oxidative stability of lipids and oils employs the Oxidative Stability by Rotating Pressure Vessel (RBOT) test. In this test, oxidative stability, determined according to the ASTM D2272-98 test method (ASTM, 2001, “Standard Test Method for Oxidation Stability of Steam Turbine Oils by Rotating Pressure Vessel,” in Book of Standards, Vol. 05.01., American Society for Testing and Materials, West Conshohocken, Pa.), measures the time for oxygen pressure to decrease in a closed stainless steel vessel containing a lipid or oil when heated with a copper coil catalyst. Oxygen taken up by the lipid or oil during the reaction is an indication of oil degradation.
In these experiments, Oxidative Stability by Rotating Pressure Vessel (RBOT) tests were performed with different 3-methoxybenzyl thiourea compounds synthesized in Example 3 that were mixed in different quantities with different mono- and polyunsaturated vegetable oils. Hexane was used to clean and store the copper coils, but all other aspects of the Oxidative Stability by Rotating Pressure Vessel (RBOT) test were the same as in the standard ASTM D2272–98 test method (ASTM, 2001, “Standard Test Method for Oxidation Stability of Steam Turbine Oils by Rotating Pressure Vessel,” in Book of Standards, Vol. 05.01., American Society for Testing and Materials, West Conshohocken, Pa.).

[2] = Solubility in refined meadowfoam seed oil (HPLC); format: physicochemical; details: oil or lipid, thermodynamic from solid, cooled to room temperature overnight
Description: Typical retention times were 7–9 min for the thioureas. Samples were weighed accurately (about 0.1 g) into 1.00 g of refined meadowfoam seed oil and heated to temperature (either 30° C. or 50° C.) for 4 h with occasional shaking. The samples were cooled to room temperature overnight, centrifuged and 0.3 g of the supernatant oil was removed and diluted with 1 ml CHCl3 for testing.

[3] = Decomposition temperature by differential scanning calorimetry; format: physicochemical; details: DSC, onset of decrease in slope of temperature-heat flow curve; unit not given (scans in ° C.)
Description: A dual cell Perkin Elmer differential scanning calorimeter (PE DSC 7, Norwalk, Conn.) was used to determine the thermal transitions of the compounds. All scans were carried out from 30° C. to 200° C. at a heating and cooling rate of 10° C./minute and 40° C./min, respectively, except for 1-(3-methoxybenzyl)-3-(1-propenyl) thiourea, for which the scans were carried out from 0° C. to 200° C. at a heating rate of 10° C./min, and 1-(3-methoxybenzyl)-3-octadecyl thiourea, for which both the heating and cooling rates were 10° C./min. 1,3-di(3-methoxybenzyl) thiourea and 1-(3-methoxybenzyl)-3-dodecyl thiourea were heated to 300° C., and 1-(3-methoxybenzyl)-3-(4-methoxybenzoyl) thiourea was heated to 250° C. to determine the decomposition temperature. The decomposition temperature was taken as the onset of a decrease in the slope of the temperature-heat flow DSC curve. The first heating curve was recorded in all cases, and liquid nitrogen was used to quench the samples after the first heating.

[4] = Behaviour on addition of water to DMSO solution (sample preparation); format: physicochemical; details: dissolved in 50 μl DMSO, water added to make 1 mg/ml
Description: Test compounds (1–2 mg) were originally made up at a concentration of 1 mg/ml in artificial seawater, except for water insoluble compounds, which were dissolved in 50 μl of dimethyl sulfoxide (DMSO) prior to adding enough water to make a 1 mg/ml solution. Serial dilutions were performed in 100 μl of seawater in triplicate in the wells of a 96-well microplate to give appropriate concentrations. Control wells for both water and DMSO were included with each experiment. A 100 μl solution of naupli (10–30) was added to each well, and the covered plate was incubated for 24 h at 27° C. The number of non-motile, and the total number of, naupli were counted in each well using a binocular microscope (10×). LC50 values were then calculated by Probit analysis (Finney, D. J., 1971, “Probit Analysis,” 3rd Ed.; University Press: Cambridge [Eng.]).

[5] = UVB and UVA molar absorptivities in chloroform; format: physicochemical; details: 0.01 mg/ml in chloroform
Description: The compounds synthesized in Example 3 were tested to determine their ability to absorb […] UVA light. UV spectra of quantitatively weighed and diluted samples (0.01 mg/ml) in chloroform were scanned from 244–450 nm at 240 nm/min on a Beckman DU 640 spectrophotometer (Beckman Coulter, Inc., Fullerton, Calif.). Amax in the 280–320 nm range was determined and converted to molar absorptivity for the UVB region, and Amax in the 320–400 nm range was determined and converted to molar absorptivity for the UVA region.

in vivo = details: Artemia salina (brine shrimp), in vivo, other: exposure in seawater in microplate wells
Description: (§1) Brine shrimp eggs (Artemia salina) were obtained from Brine Shrimp Direct, Ogden, Utah and stored at 10° C. until used. Eggs (400 mg) were added to 1 l of deionized water containing 40 g of sea salts (Sigma Chemical Co., St. Louis, Mo.).
(§2) Serial dilutions were performed in 100 μl of seawater in triplicate in the wells of a 96-well microplate to give appropriate concentrations. Control wells for both water and DMSO were included with each experiment. […] The number of non-motile, and the total number of, naupli were counted in each well using a binocular microscope (10×).

[6] = tested on: Brine Shrimp (Artemia Salina); test: in vivo; details: as Table 7 shows
Description: as §1, §2

## CCCCCCCCCCCCNC(=S)NCc1cccc(OC)c1 [1-(3-methoxybenzyl)-3-dodecyl thiourea]
[1]; Refined Meadowfoam Seed Oil plus 0.1% compound
  Oxidative Stability (RBOT): 41 min
[1]; addition of 0.1% compound
  Oxidative stability in the RBOT test, in words: doubled
[2]; heated to 30° C. for 4 h, read-out: Solubility at 30° C.
  solubility at 4 h: 1040 µg/mL (≈ 2860 µM)
[2]; heated to 50° C. for 4 h, read-out: Solubility at 50° C.
  solubility at 4 h: 909 µg/mL (≈ 2490 µM)
[3]
  Decomposition Temperature: 273 °C
[4]
  behaviour upon the addition of water: precipitated out of solution
[5]; Amax in 280–320 nm
  UVBMAX Molar Absorptivity: 2625
[5]; Amax in 320–400 nm
  UVAMAX Molar Absorptivity: 0.0
In vivo
  LC50 at 24 h: 3.8 µg/mL (≈ 10.4 µM)
[6]
  toxicity against brine shrimp, in words: high enough to consider its use in therapeutic tests for killing cancer cells
